According to PubChem BioAssay AID220 (DTP/NCI, 2004):
Values joined by “and” are separate entries in the source; they are usually repeats but may differ in a detail not shown here. Equal entries are not always repeated. Inconclusive results are not listed.

Test system: CD8F1 mice, subcutaneous mammary adenocarcinoma, T/C%
Experiment: NCI In Vivo Anticancer Drug Screen. Data for tumor model Mammary Adenocarcinoma CD8F1 (subcutaneous) in CD8F1
Conditions: higher = larger tumour
Procedure, shortened: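 Antitumor activity is assessed in transplantable-tumor mice by comparing the treated group with a vehicle-treated control group. Survival or tumor size serves as the measure, reported as T divided by C.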

[1] = endpoint: median tumor weight (est.), dose: 6.25 mg/kg/injection, schedule: Q07DX005 (ip), vehicle: saline
[2] = endpoint: median tumor weight (est.), dose: 12.5 mg/kg/injection, schedule: Q07DX005 (ip), vehicle: saline
[3] = endpoint: median tumor weight (est.), dose: 50.0 mg/kg/injection, schedule: Q07DX005 (ip), vehicle: saline

## CCC(C)Nc1ccc(N)cc1 (stereo unspecified)
endpoint: median tumor weight (est.), dose: 0.18 mg/kg/injection, schedule: Q07DX005 (ip), vehicle: Klucel (hydroxypropylcellulose) (HPC)
  T/C: 90 % of control
endpoint: median tumor weight (est.), dose: 0.37 mg/kg/injection, schedule: Q07DX005 (ip), vehicle: Klucel (hydroxypropylcellulose) (HPC)
  T/C: 92 % of control
endpoint: median tumor weight (est.), dose: 0.75 mg/kg/injection, schedule: Q07DX005 (ip), vehicle: Klucel (hydroxypropylcellulose) (HPC)
  T/C: 86 % of control
endpoint: median tumor weight (est.), dose: 1.5 mg/kg/injection, schedule: Q07DX005 (ip), vehicle: Klucel (hydroxypropylcellulose) (HPC)
  T/C: 107 % of control
endpoint: median tumor weight change, dose: 0.2 mg/kg/injection, schedule: Q01DX001 (ip), vehicle: Klucel (hydroxypropylcellulose) (HPC)
  T/C: 123 % of control
endpoint: median tumor weight change, dose: 0.37 mg/kg/injection, schedule: Q01DX001 (ip), vehicle: Klucel (hydroxypropylcellulose) (HPC)
  T/C: 93 % of control
endpoint: median tumor weight change, dose: 0.75 mg/kg/injection, schedule: Q01DX001 (ip), vehicle: Klucel (hydroxypropylcellulose) (HPC)
  T/C: 89 % of control
endpoint: median tumor weight change, dose: 1.5 mg/kg/injection, schedule: Q01DX001 (ip), vehicle: Klucel (hydroxypropylcellulose) (HPC)
  T/C: 101 % of control
endpoint: median tumor weight change, dose: 3.0 mg/kg/injection, schedule: Q01DX001 (ip), vehicle: Klucel (hydroxypropylcellulose) (HPC)
  T/C: 119 % of control

## C[Si](C)(C)n1nnn(-c2ccccc2)c1=O
endpoint: mean tumor weight, dose: 25.0 mg/kg/injection, schedule: Q07DX006 (ip), vehicle: saline with Tween-80
  T/C: 100 % of control
endpoint: mean tumor weight, dose: 50.0 mg/kg/injection, schedule: Q07DX006 (ip), vehicle: saline with Tween-80
  T/C: 164 % of control
endpoint: mean tumor weight, dose: 400.0 mg/kg/injection, schedule: Q07DX006 (ip), vehicle: saline with Tween-80
  T/C: 102 % of control
endpoint: median tumor weight (est.), dose: 12.5 mg/kg/injection, schedule: Q07DX005 (ip), vehicle: saline with Tween-80
  T/C: 79 % of control
endpoint: median tumor weight (est.), dose: 25.0 mg/kg/injection, schedule: Q07DX005 (ip), vehicle: saline with Tween-80
  T/C: 65 % of control
endpoint: median tumor weight (est.), dose: 50.0 mg/kg/injection, schedule: Q07DX005 (ip), vehicle: saline with Tween-80
  T/C: 97 % of control
endpoint: median tumor weight (est.), dose: 200.0 mg/kg/injection, schedule: Q07DX005 (ip), vehicle: saline with Tween-80
  T/C: 77 % of control
endpoint: median tumor weight (est.), dose: 400.0 mg/kg/injection, schedule: Q07DX005 (ip), vehicle: saline with Tween-80
  T/C: 87 % of control

## CC1CCC2N(C1)CC1C3CC4C(CC(=O)C5CC(O)CCC54C)C3CCC1C2(C)O (stereo unspecified)
endpoint: mean tumor weight, dose: 2.5 mg/kg/injection, schedule: Q07DX006 (ip), vehicle: saline with Tween-80
  T/C: 87 % of control
endpoint: mean tumor weight, dose: 5.0 mg/kg/injection, schedule: Q07DX006 (ip), vehicle: saline with Tween-80
  T/C: 81 % of control
endpoint: mean tumor weight, dose: 10.0 mg/kg/injection, schedule: Q07DX006 (ip), vehicle: saline with Tween-80
  T/C: 90 % of control
endpoint: mean tumor weight, dose: 20.0 mg/kg/injection, schedule: Q07DX006 (ip), vehicle: saline with Tween-80
  T/C: 89 % of control

## COC(=O)[C@@]12OC[C@]34[C@H]([C@@H](O)[C@@H]1O)[C@@]1(C)CC(=O)C(O)=C(C)[C@@H]1C[C@H]3OC(=O)[C@H](OC(=O)/C=C(\C)C(C)C)[C@@H]24
endpoint: median tumor weight (est.), dose: 0.25 mg/kg/injection, schedule: Q07DX005 (ip), vehicle: saline + alcohol
  T/C: 99 % of control
endpoint: median tumor weight (est.), dose: 0.5 mg/kg/injection, schedule: Q07DX005 (ip), vehicle: saline + alcohol
  T/C: 92 % of control
endpoint: median tumor weight (est.), dose: 1.0 mg/kg/injection, schedule: Q07DX005 (ip), vehicle: saline + alcohol
  T/C: 104 % of control
endpoint: median tumor weight change, dose: 1.0 mg/kg/injection, schedule: Q01DX001 (ip), vehicle: saline + alcohol
  T/C: 85 % of control
endpoint: median tumor weight change, dose: 2.0 mg/kg/injection, schedule: Q01DX001 (ip), vehicle: saline + alcohol
  T/C: 81 % of control
endpoint: median tumor weight change, dose: 4.0 mg/kg/injection, schedule: Q01DX001 (ip), vehicle: saline + alcohol
  T/C: 93 % of control

## O=S(=O)(N=N/C=C1\C=CC=CN1O)c1cccs1
endpoint: median tumor weight change, dose: 125.0 mg/kg/injection, schedule: Q01DX001 (ip), vehicle: saline with Tween-80
  T/C: 76 % of control
endpoint: median tumor weight change, dose: 250.0 mg/kg/injection, schedule: Q01DX001 (ip), vehicle: saline with Tween-80
  T/C: 88 % of control

## O=C(O)CC(=O)O.[NH-]CC[NH-].[Pt+2]
endpoint: median tumor weight (est.), dose: 14.06 mg/kg/injection, schedule: Q07DX005 (ip), vehicle: dextrose
  T/C: 14 % of control
endpoint: median tumor weight (est.), dose: 28.13 mg/kg/injection, schedule: Q07DX005 (ip), vehicle: dextrose
  T/C: 25 % of control
endpoint: median tumor weight (est.), dose: 56.25 mg/kg/injection, schedule: Q07DX005 (ip), vehicle: dextrose
  T/C: 14 % of control
endpoint: median tumor weight (est.), dose: 112.5 mg/kg/injection, schedule: Q07DX005 (ip), vehicle: dextrose
  T/C: 13 % of control
endpoint: median tumor weight (est.), dose: 225.0 mg/kg/injection, schedule: Q07DX005 (ip), vehicle: dextrose
  T/C: 3 % of control

## CN1C(=O)CC2(CCN(CCCC(=O)c3ccc(F)cc3)CC2)C1=O
[1]
  T/C: 112 % of control
endpoint: median tumor weight (est.), dose: 6.25 mg/kg/injection, schedule: Q07DX005 (ip), vehicle: suspension in saline
  T/C: 52 % of control
[2]
  T/C: 62 % of control
endpoint: median tumor weight (est.), dose: 12.5 mg/kg/injection, schedule: Q07DX005 (ip), vehicle: suspension in saline
  T/C: 108 % of control
endpoint: median tumor weight (est.), dose: 25.0 mg/kg/injection, schedule: Q07DX005 (ip), vehicle: saline
  T/C: 170 % of control
[3]
  T/C: 117 % of control
endpoint: median tumor weight (est.), dose: 50.0 mg/kg/injection, schedule: Q07DX005 (ip), vehicle: suspension in saline
  T/C: 258 % of control
endpoint: median tumor weight (est.), dose: 100.0 mg/kg/injection, schedule: Q07DX005 (ip), vehicle: suspension in saline
  T/C: 122 % of control

## COC1=C(NC(C)=O)C(=O)c2nc(-c3nc(C(=O)O)c(C)c(-c4ccc(OC)c(OC)c4O)c3N)ccc2C1=O
endpoint: median tumor weight change, dose: 12.5 mg/kg/injection, schedule: Q01DX001 (ip), vehicle: Klucel (hydroxypropylcellulose) (HPC)
  T/C: 171 % of control

## COc1ccc(C(=O)/C(Br)=C/C(=O)O)cc1
endpoint: mean tumor weight, dose: 8.0 mg/kg/injection, schedule: Q07DX004 (ip), vehicle: saline
  T/C: 69 % of control
endpoint: mean tumor weight, dose: 12.5 mg/kg/injection, schedule: Q01DX009 (ip), vehicle: saline
  T/C: 206 % of control and 122 % of control
endpoint: mean tumor weight, dose: 16.0 mg/kg/injection, schedule: Q07DX004 (ip), vehicle: saline
  T/C: 171 % of control
endpoint: mean tumor weight, dose: 25.0 mg/kg/injection, schedule: Q01DX009 (ip), vehicle: saline
  T/C: 241 % of control and 113 % of control
endpoint: mean tumor weight, dose: 25.0 mg/kg/injection, schedule: Q07DX006 (ip), vehicle: saline
  T/C: 190 % of control
endpoint: mean tumor weight, dose: 32.0 mg/kg/injection, schedule: Q07DX004 (ip), vehicle: saline
  T/C: 163 % of control
endpoint: mean tumor weight, dose: 50.0 mg/kg/injection, schedule: Q01DX009 (ip), vehicle: saline
  T/C: 156 % of control and 209 % of control
endpoint: mean tumor weight, dose: 50.0 mg/kg/injection, schedule: Q07DX006 (ip), vehicle: saline
  T/C: 86 % of control
endpoint: mean tumor weight, dose: 64.0 mg/kg/injection, schedule: Q07DX004 (ip), vehicle: saline
  T/C: 89 % of control
endpoint: median tumor weight (est.), dose: 4.0 mg/kg/injection, schedule: Q01DX005 (ip), vehicle: saline
  T/C: 159 % of control
endpoint: median tumor weight (est.), dose: 8.0 mg/kg/injection, schedule: Q04DX005 (ip), vehicle: saline
  T/C: 114 % of control
endpoint: median tumor weight (est.), dose: 8.0 mg/kg/injection, schedule: Q07DX005 (ip), vehicle: saline
  T/C: 120 % of control
endpoint: median tumor weight (est.), dose: 16.0 mg/kg/injection, schedule: Q01DX005 (ip), vehicle: saline
  T/C: 100 % of control
endpoint: median tumor weight (est.), dose: 16.0 mg/kg/injection, schedule: Q07DX005 (ip), vehicle: saline
  T/C: 120 % of control
endpoint: median tumor weight (est.), dose: 32.0 mg/kg/injection, schedule: Q01DX005 (ip), vehicle: saline
  T/C: 116 % of control
endpoint: median tumor weight (est.), dose: 32.0 mg/kg/injection, schedule: Q07DX005 (ip), vehicle: saline
  T/C: 50 % of control
endpoint: median tumor weight (est.), dose: 64.0 mg/kg/injection, schedule: Q01DX005 (ip), vehicle: saline
  T/C: 56 % of control
endpoint: median tumor weight (est.), dose: 64.0 mg/kg/injection, schedule: Q04DX005 (ip), vehicle: saline
  T/C: 219 % of control
endpoint: median tumor weight (est.), dose: 64.0 mg/kg/injection, schedule: Q07DX005 (ip), vehicle: saline
  T/C: 105 % of control

## OCCN1CCN(CCCN2c3ccccc3Sc3ccc(C(F)(F)F)cc32)CC1
endpoint: median tumor weight (est.), dose: 3.12 mg/kg/injection, schedule: Q07DX005 (ip), vehicle: saline
  T/C: 85 % of control and 109 % of control
[1]
  T/C: 107 % of control and 122 % of control
[2]
  T/C: 80 % of control and 83 % of control
[3]
  T/C: 47 % of control and 48 % of control
